Test results from the CheMixHub ionic liquid set.

Assay: xn = mol fraction of the nth substance listed

CCCC[N+](CCCC)(CCCC)CCCC.O=[N+]([O-])[O-] + CCCCCCCCCCCCOS(=O)(=O)[O-].[Na+] + O
viscosity [mPa·s], 100 kPa
Details	x2 = 1.81e-06, x1 = 0.0001802	x2 = 3.61e-06, x1 = 0.0001802	x2 = 5.42e-06, x1 = 0.0001802	x2 = 7.23e-06, x1 = 0.0001802	x2 = 9.04e-06, x1 = 0.0001802	x2 = 1.084e-05, x1 = 0.0001802	x2 = 1.265e-05, x1 = 0.0001802	x2 = 1.446e-05, x1 = 0.0001802	x2 = 1.626e-05, x1 = 0.0001802	x2 = 1.807e-05, x1 = 0.0001802
293.15 K	1.012	1.013	1.014	1.014	1.015	1.016	1.017	1.018	1.018	1.018
298.15 K	0.898	0.9	0.901	0.902	0.902	0.903	0.903	0.903	0.904	0.904
303.15 K	0.797	0.798	0.798	0.8	0.8	0.801	0.801	0.801	0.801	0.801
308.15 K	0.709	0.71	0.712	0.713	0.713	0.713	0.713	0.714	0.714	0.714
313.15 K	0.643	0.644	0.644	0.644	0.645	0.645	0.645	0.645	0.645	0.646
318.15 K	0.597	0.597	0.597	0.598	0.598	0.598	0.598	0.598	0.599	0.599

Oc1cccc(O)c1O + CCCCCCCCCCCC[N+](C)(C)C.[Br-]
101.3 kPa, x2 = 0.333
Details	electrical conductivity [S/m]	viscosity [mPa·s]
293.15 K	0.00471	–
298.15 K	0.00821	–
333.15 K	0.14	400

CCCC[N+](CCCC)(CCCC)CCCC.O=[N+]([O-])[O-] + CCCCCCCCCCCC[N+](C)(C)C.[Br-] + O
viscosity [mPa·s], 100 kPa
Details	x2 = 5.421e-05, x1 = 0.0001802	x2 = 0.0001084, x1 = 0.0001801	x2 = 0.0001626, x1 = 0.0001801	x2 = 0.0002168, x1 = 0.0001801	x2 = 0.000271, x1 = 0.0001801	x2 = 0.0003252, x1 = 0.0001801	x2 = 0.0003794, x1 = 0.0001801	x2 = 0.0004335, x1 = 0.0001801	x2 = 0.0004877, x1 = 0.0001801	x2 = 0.0005418, x1 = 0.0001801
293.15 K	1.042	1.043	1.045	1.047	1.048	1.048	1.049	1.049	1.049	1.049
298.15 K	0.924	0.926	0.927	0.928	0.928	0.929	0.929	0.929	0.93	0.93
303.15 K	0.821	0.822	0.822	0.824	0.825	0.825	0.825	0.825	0.826	0.826
308.15 K	0.731	0.732	0.735	0.735	0.735	0.736	0.736	0.736	0.737	0.737
313.15 K	0.664	0.664	0.665	0.665	0.665	0.666	0.666	0.666	0.666	0.667
318.15 K	0.617	0.617	0.617	0.618	0.618	0.618	0.618	0.618	0.619	0.619
